Measurements published in patent publication US10786483B2, “Tumescent contravenom drug delivery” (HK Pharma, priority 2016, dated 2020).
Where two headings read alike, the source gives them in different places.

Assays:
[1] = tolerance interval analysis, probability that Cmax >=6 μg/mL; set-up: species or system human; conditions: 99% confidence
Experimental: Tolerance intervals were calculated at a 99% level of confidence.

[2] = From the text: Heart rates, before, during, and after tumescent infiltration and immediately after liposuction were compared.
[3] = 41 procedures, 14 subjects, 19.2 to 52 mg/kg, over the 24-hour study period
Experimental: Volunteers participated in 1 to 2 infiltration studies without liposuction and then one study with tumescent liposuction totally by local anesthesia.
Individual subjects served as their own controls. Large volume (≥500 mL) tumescent infiltration was accomplished using a peristaltic tumescent infiltration pump (HKSurgical.com, San Clemente, Calif.).
Serum samples were obtained from a peripheral vein using an indwelling 20-gauge IV catheter by a 2-syringe sampling technique. The first syringe contained 2 mL saline to flush the IV catheter and then remove and discard 2 mL of blood.
For each subject, the initial infiltration procedures were done without subsequent liposuction, and the final tumescent infiltration was followed by liposuction after allowing at least 1 hour of detumescence for gradual dispersion of subcutaneous tumescent fluid. Tumescent infiltration procedures were separated by at least 1 week. The liposuction aspirate was collected in clear plastic volumetric canisters. After allowing at least 1 hour for gravitational separation of the lipid and aqueous aspirate, the resulting supernatant fat, infranatant blood-tinged tumescent anesthetic solution, and the total aspirate volume were recorded.
AUC∞, Cmax, and Tmax without and with liposuction were compared by the paired t test.

platelet aggregation = conditions: cited from earlier work
[4] = tested on: lymphatic smooth muscle contraction; conditions: rats, applied topically; cited from earlier work
[5] = cited from earlier work
sPLA2 activity in serum [6] = conditions: rat serum; read-out: IC50, inhibitory effect on sPLA2 activity in serum; cited from earlier work
sPLA2 activity in serum [7] = conditions: rabbit serum; read-out: IC50, inhibitory effect on sPLA2 activity in serum; cited from earlier work
sPLA2 activity in serum [8] = conditions: guinea pig serum; read-out: IC50, inhibitory effect on sPLA2 activity in serum; cited from earlier work
sPLA2 activity in serum [9] = conditions: human serum; read-out: IC50, inhibitory effect on sPLA2 activity in serum; cited from earlier work
snake venoms = conditions: mice; cited from earlier work
[10] = precipitation on mixing acyclovir, lidocaine and epinephrine; type: physicochemical
From the text: Some drugs are considered incompatible because of precipitation when mixed together in the same solution. […] This tumescent solution can be safely and painlessly injected subcutaneously into a human patient. This is surprising and unexpected because the FDA approved package insert labeling for acyclovir for IV infusion states explicitly the subcutaneous delivery must be avoided. Similar increased solubility and drug-drug compatibility of mixtures of multiple contravenom drugs can be expected with sufficient tumescent dilution. This is a unique and unexpected advantage of tumescent contravenom delivery.

Bee Venom sPLA2 = Bee Venom sPLA2 (Apis mellifera, UniProt P00630); conditions: cited from earlier work
Sequence of Bee Venom sPLA2 (P00630 34-167 limits assumed): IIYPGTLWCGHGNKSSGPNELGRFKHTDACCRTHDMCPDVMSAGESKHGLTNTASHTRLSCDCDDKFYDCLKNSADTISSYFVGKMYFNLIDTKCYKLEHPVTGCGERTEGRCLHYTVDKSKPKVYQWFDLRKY

[11] = with liposuction, epinephrine dose 1.6 to 4.3 mg
[12] = without liposuction, epinephrine dose 1.2 to 4.3 mg

CCN(CC)CC(=O)Nc1c(C)cccc1C [lidocaine]
risk of lidocaine serum concentration >6 μg/mL ([1]; No liposuction, 40 mg/kg): 1/750 | risk of lidocaine serum concentration >6 μg/mL ([1]; No liposuction, 50 mg/kg): 1/15 | risk of lidocaine serum concentration >6 μg/mL ([1]; No liposuction, 55 mg/kg): 1/4 | risk of lidocaine serum concentration >6 μg/mL ([1]; No liposuction, […] mg/kg): 1/80 | risk of lidocaine serum concentration >6 μg/mL ([1]; With liposuction, 50 mg/kg): 1/500 | risk of lidocaine serum concentration >6 μg/mL ([1]; With liposuction, 55 mg/kg): 1/100 | lidocaine-associated adverse event ([2]; one subject, body mass index 20, 45 mg/kg without liposuction, approximately 12 hours after infiltration): transient nausea | measured serum lidocaine concentrations, all [3]: < 6 µg/mL | lidocaine concentrations that consistently inhibit in-vitro platelet aggregation (platelet aggregation; aggregation induced by ADP, epinephrine and collagen): ≥ 0.5 mg/mL | effect on platelet aggregation (platelet aggregation; at safe systemic concentrations (e.g. ≤6 micrograms/ml)): no effect | platelet aggregation induced by ADP (platelet aggregation): inhibit | lymph transit time [4]: prolong | survival time after injection of venom [4]: increase | recommended maximal dosage, FDA-approved package insert labeling ([5]; lidocaine with epinephrine, infiltration local anesthesia): 7 mg/kg | maximal safe dosage recommended by American Society for Dermatologic Surgery guidelines ([5]; liposuction totally by local anesthesia): 55 mg/kg

CCc1c(C(=O)C(N)=O)c2c(OCC(=O)O)cccc2n1Cc1ccccc1 [Varespladib]
IC50 (sPLA2 activity in serum [6]): 8.1 nM | IC50 (sPLA2 activity in serum [7]): 5 nM | IC50 (sPLA2 activity in serum [8]): 3.2 nM | IC50 (sPLA2 activity in serum [9]): 6.2 nM | neutralizing a wide variety of snake venoms (snake venoms): effective

CCOC(=O)c1ccc(N)cc1 [benzocaine]
platelet aggregation induced by ADP (platelet aggregation): inhibit

Nc1nc2c(ncn2COCCO)c(=O)[nH]1 [acyclovir]
precipitation on mixing ([10]; 1 gm acyclovir (1 g/20 ml) with 1 gram lidocaine (1 gram/100 ml) with epinephrine (1 mg/L), 120 ml mixture): immediate precipitation | precipitation on mixing ([10]; 1 gm acyclovir and 1 gm lidocaine in 100 ml, 250 ml and 500 ml of saline): precipitation | precipitation on mixing ([10]; 1 gm acyclovir, 1 gm lidocaine and 1 mg epinephrine in 1000 ml of saline): no precipitation

CNC[C@H](O)c1ccc(O)c(O)c1 [epinephrine]
clinical evidence of toxicity ([2]; 14 subjects, 41 procedures): no clinical evidence | episodes of tachycardia ([2]; 41 studies, most patients received oral clonidine 0.1 mg): no episodes | mean difference in heart rate before infiltration and after liposuction [2, 11]: +5 | range of difference in heart rate before infiltration and after liposuction [2, 11]: −12 to +33 | mean difference in heart rate before and after infiltration [2, 12]: −3.4 | range of difference in heart rate before and after infiltration [2, 12]: −24 to +17

CCCCN1CCCCC1C(=O)Nc1c(C)cccc1C (centres unmarked) [bupivacaine]
platelet aggregation induced by ADP (platelet aggregation): inhibit

CCc1c(C(=O)C(N)=O)c2c(OCC(=O)OC)cccc2n1Cc1ccccc1 [Me-Varespladib, methyl varespladib]
IC50, sPLA2 inhibition (Bee Venom sPLA2): *Indeterminate
